Results on seven compounds are retold here after US8445476B2, “Carbacephem β-lactam antibiotics” (Achaogen, Inc., priority 2007, dated 2013).

What all share (type): cell-based
The test system of assay [1] is S. aureus ASAU1029 (CA-MRSA, USA300). Put plainly: MIC assay, S. aureus ASAU1029. The conditions noted are these: Staphylococcus aureus, read-out: MIC ASAU 1029. The procedure:
(§1) The in vitro MIC for bacterial isolates may be obtained in the following manner: a test compound is incorporated into a series of two-fold dilutions in cation adjusted Mueller-Hinton broth (CAMHB). Different bacterial strains diluted to provide a uniform inoculum are added to the CAMHB containing test compounds. A well without test compound is included for each strain as a growth control. […] The procedures used in these experiments are generally those standardized by the Clinical and Laboratory Standards Institute (CLSI), as set forth in the CLSI publication entitled “M7-A7. Methods for dilution antimicrobial susceptibility tests for bacteria that grow aerobically; approved standard-seventh edition.” (2006), which is incorporated by reference as if fully set forth herein. The following exemplifies such a procedure although it is to be understood that modifications of the procedure may be implemented as required.
(§2) Two-fold dilutions of the test compounds are prepared in CAMHB at 2× the concentration range to be tested if the compounds are soluble in aqueous solution. Alternately, dimethylsulfoxide (DMSO) is used to prepare two-fold dilutions at 10× the concentration range to be tested. Reference drugs such as cefotaxime, vancomycin or imipenem are used as positive controls. A few isolated colonies are retrieved from a pure culture prepared on an agar plate and suspended in PBS until the turbidity of the suspension matches a 0.5 McFarland standard which is equal to approximately 10^8 sCFU/mL. This solution is further diluted in CAMHB to 10^6CFU/mL if compounds are diluted in CAMHB and 5×10^5 CFU/mL if compounds are diluted in DMSO. The CAMHB plates containing the compound dilutions are combined in equal volumes with the higher density inoculum, or 10 μL of the DMSO dilutions are added to the lower density inoculum. When S. aureus is the organism being tested and the compound is oxacillin, a beta-lactam or a carbacephem compound of the present invention, 2% NaCl is added to the growth media. The plates are then incubated for 16-20 hours at 35° C. The plates are then observed to determine which concentration of the test compound is the MIC.

Assay [2] concerns S. aureus ASAU002 (MRSA ATCC 33591). In words: MIC assay, S. aureus ASAU002. Conditions: Staphylococcus aureus; S. aureus ASAU002, MRSA ATCC 33591; read-out: MIC ASAU 002. As for the experimental part:
as §1, §2

Assay [3] concerns S. aureus ASAU1028 (CA-MRSA, USA400). In words: MIC assay, S. aureus ASAU1028. The conditions noted are these: Staphylococcus aureus, read-out: MIC ASAU 1028. The procedure: as §1, §2
The test system of assay [4] is S. aureus ASAU1033 (MRSA, CIP, ERY, CLIN, TET, GEN resistant). Put plainly: MIC assay, S. aureus ASAU1033. Conditions: Staphylococcus aureus, read-out: MIC ASAU 1033. As for the experimental part:
as §1, §2

The test system of assay [5] is S. aureus ASAU1043 (MRSA, CIP, ERY, CLI, GEN resistant). Put plainly: MIC assay, S. aureus ASAU1043. Conditions: Staphylococcus aureus, read-out: MIC ASAU 1043. The procedure:
as §1, §2

The subject of assay [6] is S. aureus ASAU001 (Susceptible Organism ATCC 29213). In words: MIC assay, S. aureus ASAU001. The conditions noted are these: Staphylococcus aureus, ATCC29213, read-out: MIC ASAU 001. As for the experimental part: as §1, §2

In brackets after ≈: the same amount, converted by molar mass.

In general, MIC refers to the lowest concentration that inhibits growth of the organism. `Nc1nc(/C(=N/O)C(=O)N[C@@H]2C(=O)N3C(C(=O)O)=C(Sc4ccncc4)CC[C@H]23)c(Cl)s1` [27/1, (6R,7S,Z)-7-(2-(2-amino-5-chlorothiazol-4-yl)-2-(hydroxyimino)acetamido)-8-oxo-3-(pyridin-4-ylthio)-1-aza-bicyclo[4.2.0]oct-2-ene-2-carboxylic Acid]: the MIC in assay [1] was not above 1 µg/mL; in assay [2], 1 to 8 µg/mL (≈ 2.02 to 16.2 µM); in assay [3], not above 1 µg/mL; in assay [4] it was 1 to 8 µg/mL (≈ 2.02 to 16.2 µM); in assay [5], 1 to 8 µg/mL (≈ 2.02 to 16.2 µM); in assay [6], not above 1 µg/mL.

With `NCCSCc1ncccc1SC1=C(C(=O)O)N2C(=O)[C@@H](NC(=O)/C(=N\O)c3nsc(N)n3)[C@H]2CC1` [47/1, (6R,7S,Z)-7-(2-(5-amino-1,2,4-thiadiazol-3-yl)-2-(hydroxyimino)acetamido)-3-(2-((2-aminoethylthio)methyl)pyridin-3-ylthio)-8-oxo-1-aza-bicyclo[4.2.0]oct-2-ene-2-carboxylic Acid], the MIC in assay [1] is not above 1 µg/mL; in assay [3], 1 to 8 µg/mL (≈ 1.82 to 14.5 µM); in assay [4], 1 to 8 µg/mL (≈ 1.82 to 14.5 µM); in assay [5], 1 to 8 µg/mL (≈ 1.82 to 14.5 µM); in assay [6], not above 1 µg/mL.

As for `CO/N=C(\C(=O)N[C@@H]1C(=O)N2C(C(=O)O)=C(Sc3nnc(N)s3)CC[C@H]12)c1nsc(N)n1` [49/1, (6R,7S,Z)-7-(2-(5-amino-1,2,4-thiadiazol-3-yl)-2-(methoxyimino)acetamido)-3-(5-amino-1,3,4-thiadiazol-2-ylthio)-8-oxo-1-aza-bicyclo[4.2.0]oct-2-ene-2-carboxylic Acid], the MIC was 1 to 8 µg/mL (≈ 2.01 to 16.1 µM) in assay [1]; more than 8 µg/mL in assay [3]; more than 8 µg/mL in assay [4]; more than 8 µg/mL in assay [5]; not above 1 µg/mL in assay [6].

As to `CO/N=C(\C(=O)N[C@@H]1C(=O)N2C(C(=O)O)=C(Sc3nncs3)CC[C@H]12)c1nsc(N)n1` [50/1, (6R,7S,Z)-3-(1,3,4-thiadiazol-2-ylthio)-7-(2-(5-amino-1,2,4-thiadiazol-3-yl)-2-(methoxyimino)acetamido)-8-oxo-1-aza-bicyclo[4.2.0]oct-2-ene-2-carboxylic Acid], the minimal inhibitory concentration (MIC) in assay [1] is 1 to 8 µg/mL (≈ 2.07 to 16.6 µM); in assay [3] it was 1 to 8 µg/mL (≈ 2.07 to 16.6 µM); in assay [4], more than 8 µg/mL; in assay [5], more than 8 µg/mL; in assay [6], not above 1 µg/mL.

Regarding `CO/N=C(\C(=O)N[C@@H]1C(=O)N2C(C(=O)O)=C(Sc3cccnc3CSCCN)CC[C@H]12)c1nsc(N)n1` [51/1, (6R,7S,Z)-7-(2-(5-amino-1,2,4-thiadiazol-3-yl)-2-(methoxyimino)acetamido)-3-(2-((2-aminoethylthio)methyl)pyridin-3-ylthio)-8-oxo-1-aza-bicyclo[4.2.0]oct-2-ene-2-carboxylic Acid], the MIC in assay [1] is 1 to 8 µg/mL (≈ 1.77 to 14.2 µM); in assay [3], 1 to 8 µg/mL (≈ 1.77 to 14.2 µM); in assay [4], more than 8 µg/mL; in assay [5] it was more than 8 µg/mL; in assay [6], not above 1 µg/mL.

With `CO/N=C(\C(=O)N[C@@H]1C(=O)N2C(C(=O)O)=C(Sc3ccncc3CSCCN)CC[C@H]12)c1nsc(N)n1` [52/1, (6R,7S,Z)-7-(2-(5-amino-1,2,4-thiadiazol-3-yl)-2-(methoxyimino)acetamido)-3-(3-((2-aminoethylthio)methyl)pyridin-4-ylthio)-8-oxo-1-aza-bicyclo[4.2.0]oct-2-ene-2-carboxylic acid], the MIC was 1 to 8 µg/mL (≈ 1.77 to 14.2 µM) in assay [1]; 1 to 8 µg/mL (≈ 1.77 to 14.2 µM) in assay [3]; 1 to 8 µg/mL (≈ 1.77 to 14.2 µM) in assay [4]; more than 8 µg/mL in assay [5]; not above 1 µg/mL in assay [6].

As to `CO/N=C(\C(=O)N[C@@H]1C(=O)N2C(C(=O)O)=C(Sc3ccncc3)CC[C@H]12)c1nsc(N)n1` [53/1, (6R,7S,Z)-7-(2-(5-amino-1,2,4-thiadiazol-3-yl)-2-(methoxyimino)acetamido)-8-oxo-3-(pyridin-4-ylthio)-1-aza-bicyclo[4.2.0]oct-2-ene-2-carboxylic Acid], the MIC in assay [1] is 1 to 8 µg/mL (≈ 2.1 to 16.8 µM); in assay [3], 1 to 8 µg/mL (≈ 2.1 to 16.8 µM); in assay [4], more than 8 µg/mL; in assay [5], more than 8 µg/mL; in assay [6] it was not above 1 µg/mL.
